In ChEMBL document CHEMBL1143405, “Retapamulin inhibition of translation and 50S ribosomal subunit formation in Staphylococcus aureus cells” (Antimicrob Agents Chemother, 2007):
Converted amounts (≈) assume the structure as drawn. The source made the active and inactive calls. No cut-off for these calls is given here.

Legend:
Staphylococcus aureus [1] = test: Antibacterial activity against wild type Staphylococcus aureus RN1786; assay type: functional
Staphylococcus aureus [2] = test: Inhibition of ribosomal 30S subunit formation in wild type Staphylococcus aureus RN1786; assay type: functional, organism-based
Staphylococcus aureus [3] = test: Reduction of 23S rRNA level in wild type Staphylococcus aureus RN1786 at 10 ng/mL by agilent bioanalyzer analysis; assay type: functional; set-up: scale not given: the % may be the effect or the level left
Staphylococcus aureus [4] = test: Reduction of 23S rRNA level in methicillin-resistant Staphylococcus aureus A1024 at 20 ng/mL by agilent bioanalyzer analysis; assay type: functional; set-up: scale not given: the % may be the effect or the level left
Staphylococcus aureus [5] = test: Inhibition of ribosomal 30S subunit formation in methicillin-resistant Staphylococcus aureus A1024; assay type: functional, organism-based
Staphylococcus aureus [6] = test: Inhibition of ribosomal 50S subunit synthesis in methicillin-resistant Staphylococcus aureus A1024; assay type: functional, organism-based
Staphylococcus aureus [7] = test: Effect on 16S rRNA level in wild type Staphylococcus aureus RN1786 at 10 ng/mL by agilent bioanalyzer analysis; assay type: functional
Staphylococcus aureus [8] = test: Increase in small RNA level in wild type Staphylococcus aureus RN1786 at 10 ng/mL by agilent bioanalyzer analysis; assay type: functional
Staphylococcus aureus [9] = test: Inhibition of protein synthesis in methicillin-resistant Staphylococcus aureus A1024; assay type: functional, organism-based
Staphylococcus aureus [10] = test: Effect on 16S rRNA level in wild type Staphylococcus aureus RN1786 at 20 ng/mL by agilent bioanalyzer analysis; assay type: functional
Staphylococcus aureus [11] = test: Antibacterial activity against methicillin-resistant Staphylococcus aureus A1024; assay type: functional
Staphylococcus aureus [12] = test: Effect on 16S rRNA level in methicillin-resistant Staphylococcus aureus A1024 at 10 ng/mL by agilent bioanalyzer analysis; assay type: functional
Staphylococcus aureus [13] = test: Increase in small RNA level in methicillin-resistant Staphylococcus aureus A1024 at 20 ng/mL by agilent bioanalyzer analysis; assay type: functional
Staphylococcus aureus [14] = test: Inhibition of total viable cell number in methicillin-resistant Staphylococcus aureus A1024; assay type: functional, organism-based
Staphylococcus aureus [15] = test: Effect on 16S rRNA level in methicillin-resistant Staphylococcus aureus A1024 at 20 ng/mL by agilent bioanalyzer analysis; assay type: functional
Staphylococcus aureus [16] = test: Reduction of 23S rRNA level in wild type Staphylococcus aureus RN1786 at 20 ng/mL by agilent bioanalyzer analysis; assay type: functional; set-up: scale not given: the % may be the effect or the level left
Staphylococcus aureus [17] = test: Increase in small RNA level in methicillin-resistant Staphylococcus aureus A1024 at 10 ng/mL by agilent bioanalyzer analysis; assay type: functional
Staphylococcus aureus [18] = test: Inhibition of total viable cell number in wild type Staphylococcus aureus RN1786; assay type: functional, organism-based
Staphylococcus aureus [19] = test: Increase in small RNA level in wild type Staphylococcus aureus RN1786 at 20 ng/mL by agilent bioanalyzer analysis; assay type: functional
Staphylococcus aureus [20] = test: Inhibition of protein synthesis in wild type Staphylococcus aureus RN1786; assay type: functional, organism-based
Staphylococcus aureus [21] = test: Inhibition of ribosomal 50S subunit synthesis in wild type Staphylococcus aureus RN1786 at 8 ng/mL by [3H]uridine pulse-chase labeling method; assay type: functional, organism-based
Staphylococcus aureus [22] = test: Inhibition of ribosomal 50S subunit synthesis in wild type Staphylococcus aureus RN1786; assay type: functional, organism-based
Staphylococcus aureus [23] = test: Inhibition of ribosomal 50S subunit synthesis in methicillin-resistant Staphylococcus aureus A1024 at 8 ng/mL by [3H]uridine pulse-chase labeling method; assay type: functional, organism-based
Staphylococcus aureus [24] = test: Inhibition of ribosomal 30S subunit synthesis in methicillin-resistant Staphylococcus aureus A1024 at 8 ng/mL by [3H]uridine pulse-chase labeling method; assay type: functional, organism-based
Staphylococcus aureus [25] = test: Reduction of 23S rRNA level in methicillin-resistant Staphylococcus aureus A1024 at 10 ng/mL by agilent bioanalyzer analysis; assay type: functional; set-up: scale not given: the % may be the effect or the level left

## C=C[C@]1(C)C[C@@H](OC(=O)CS[C@@H]2C[C@H]3CC[C@@H](C2)N3C)[C@]2(C)[C@H](C)CC[C@]3(CCC(=O)[C@H]32)[C@@H](C)[C@@H]1O [RETAPAMULIN]
Staphylococcus aureus [1]
  MIC: 0.035 µg/mL (≈ 0.0676 µM)
Staphylococcus aureus [2]
  Activity: inactive
Staphylococcus aureus [3]
  Activity: 15.3%
Staphylococcus aureus [4]
  Activity: 12.3%
Staphylococcus aureus [5]
  Activity: inactive
Staphylococcus aureus [6]
  IC50: 0.02 µg/mL (≈ 0.0386 µM)
Staphylococcus aureus [7]
  Activity: 19.8%
Staphylococcus aureus [8]
  Activity: 68.7%
Staphylococcus aureus [9]
  IC50: 0.017 µg/mL (≈ 0.0328 µM)
Staphylococcus aureus [10]
  Activity: 19.7%
Staphylococcus aureus [11]
  MIC: 0.055 µg/mL (≈ 0.106 µM)
Staphylococcus aureus [12]
  Activity: 18.8%
Staphylococcus aureus [13]
  Activity: 57.6%
Staphylococcus aureus [14]
  IC50: 0.025 µg/mL (≈ 0.0483 µM)
Staphylococcus aureus [15]
  Activity: 18.8%
Staphylococcus aureus [16]
  Activity: 16.6%
Staphylococcus aureus [17]
  Activity: 52.3%
Staphylococcus aureus [18]
  IC50: 0.012 µg/mL (≈ 0.0232 µM)
Staphylococcus aureus [19]
  Activity: 70.6%
Staphylococcus aureus [20]
  IC50: 0.005 µg/mL (≈ 0.00966 µM)
Staphylococcus aureus [21]
  Activity: Active
Staphylococcus aureus [22]
  IC50: 0.027 µg/mL (≈ 0.0521 µM)
Staphylococcus aureus [23]
  Activity: Active
Staphylococcus aureus [24]
  Activity: inactive
Staphylococcus aureus [25]
  Activity: 14.1%
